Measurements as given in patent US8835476B2, “Synthesis of novel antimicrobials” (priority 2005, dated 2014).
Values after ≈ are worked out from the molar mass of the structure shown. Where two headings read alike, the source gives them in different places.

Assays:
Assay type in all cases: cell-based
[1] = system: C. amalonaticus clinical isolates; assay: Broth microdilution MIC, clinical isolate strains (NAUTICA); conditions: unit assumed
Source text: (§1) All clinical isolates tested were from The North American Urinary Tract Infection Collaborative Alliance (NAUTICA) which is a UTI surveillance study involving 40 medical centres (30 from the US and 10 from Canada). Each centre submitted up to 50 consecutive outpatient midstream urine isolates. All isolates were deemed significant urinary tract pathogens by individual laboratory criteria and identified to the species level by each laboratory's existing protocol. Isolates were transported to the coordinating laboratory (Health Sciences Centre, Winnipeg, Canada) on charcoal swabs. Only one isolate per patient was accepted. Upon receipt, isolates were cultured by the coordinating laboratory, stocked in skim milk, and stored at −80° C. awaiting reference antibiotic susceptibility testing. Elementary demographic information was also compiled for each isolate. Isolates were selected randomly from the above pool to represent 18 different species of Enterobacteriaceae and non-Enterobacteriaceae. An average of 5 strains of each species were tested for a total of 93 organisms. In addition, 23 reference (ATCC) [both gram negative and gram positive] strains were tested.
(§2) Susceptibilities to the compounds were determined using the National Committee for Clinical Laboratory Standards (NCCLS) M7-A6 broth microdilution method. […] DMSO controls were incorporated into the panel to mimic the quantity of DMSO used in dissolving some of the compounds at the higher concentrations. Each final panel well volume was 100 μl with a bacterial inoculum of 5×10^5 colony forming units (CFU)/ml. Panels were read following 16 to 20 hours of incubation at 35° C. in ambient air. The minimum inhibitory concentration (MIC) was defined as the lowest concentration of antimicrobial inhibiting visible growth. Quality control (QC) was performed using four ATCC QC organisms that were run with every batch set up to insure reproducibility.

[2] = system: S. maltophilia clinical isolates; assay: as above; conditions: unit assumed
Source text: as §1, §2

[3] = system: S. liquifaciens clinical isolates; assay: as above; conditions: unit assumed
Source text: as §1, §2

[4] = system: E. aerogenes clinical isolates; assay: as above; conditions: unit assumed
Source text: as §1, §2

[5] = system: M. morganii clinical isolates; assay: as above; conditions: unit assumed
Source text: as §1, §2

[6] = system: P. stuartii clinical isolates; assay: as above; conditions: unit assumed
Source text: as §1, §2

[7] = system: P. vulgaris clinical isolates; assay: as above; conditions: unit assumed
Source text: as §1, §2

[8] = system: P. retgerri clinical isolates; assay: as above; conditions: unit assumed
Source text: as §1, §2

[9] = system: E. cloacae clinical isolates; assay: as above; conditions: unit assumed
Source text: as §1, §2

[10] = system: B. cepacia clinical isolates; assay: as above; conditions: unit assumed
Source text: as §1, §2

[11] = system: C. freundii clinical isolates; assay: as above; conditions: in µg/mL (unit assumed)
Source text: as §1, §2

[12] = system: A. baumanii clinical isolates; assay: as above; conditions: unit assumed
Source text: as §1, §2

[13] = system: K. pneumoniae clinical isolates; assay: as above; conditions: unit assumed
Source text: as §1, §2

[14] = system: C. koseril clinical isolates; assay: as above; conditions: unit assumed
Source text: as §1, §2

[15] = system: K. oxytoca clinical isolates; assay: as above; conditions: unit assumed
Source text: as §1, §2

[16] = system: S. marcescens clinical isolates; assay: as above; conditions: unit assumed
Source text: as §1, §2

[17] = system: E. coli clinical isolates; assay: as above; conditions: unit assumed
Source text: as §1, §2

[18] = system: P. mirabilis clinical isolates; assay: as above; conditions: unit assumed
Source text: as §1, §2

S. warneri ATCC 27836 = assay: Broth microdilution MIC, ATCC strains; conditions: Staphylococcus warneri, ATCC27836; S. warneri ATCC 27836; read-out: MIC (growth inhibition, microdilution method)
Source text: as §1, §2

[19] = system: S. saprophyticus ATCC 15305; assay: Broth microdilution MIC, ATCC strains; conditions: Staphylococcus saprophyticus, ATCC15305; S. saprophyticus ATCC 15305; read-out: MIC (growth inhibition, microdilution method)
Source text: as §1, §2

S. marcescens ATCC 8100 = assay: Broth microdilution MIC, ATCC strains; conditions: Serratia marcescens, ATCC8100; S. marcescens ATCC 8100; read-out: MIC (growth inhibition, microdilution method)
Source text: as §1, §2

MRSA ATCC 33591 = assay: Broth microdilution MIC, ATCC strains; conditions: Staphylococcus aureus; MRSA ATCC 33591; read-out: MIC (growth inhibition, microdilution method)
Source text: as §1, §2

K. oxytoca ATCC 49131 = assay: Broth microdilution MIC, ATCC strains; conditions: Klebsiella oxytoca, ATCC49131; K. oxytoca ATCC 49131; read-out: MIC (growth inhibition, microdilution method)
Source text: as §1, §2

A. anitratus ATCC 19606 = assay: Broth microdilution MIC, ATCC strains; conditions: Acinetobacter calcoaceticus, ATCC19606; A. anitratus ATCC 19606; read-out: MIC (growth inhibition, microdilution method)
Source text: as §1, §2

E. cloacae ATCC 23355 = assay: Broth microdilution MIC, ATCC strains; conditions: Enterobacter cloacae, ATCC23355; E. cloacae ATCC 23355; read-out: MIC (growth inhibition, microdilution method)
Source text: as §1, §2

P. mirabilis ATCC 29245 = assay: Broth microdilution MIC, ATCC strains; conditions: Proteus mirabilis, ATCC29245; P. mirabilis ATCC 29245; read-out: MIC (growth inhibition, microdilution method)
Source text: as §1, §2

E. faecalis ATCC 29212 = assay: Broth microdilution MIC, ATCC strains; conditions: Enterococcus faecalis, read-out: MIC (growth inhibition, microdilution method)
Source text: as §1, §2

E. coli ATCC 25922 = assay: Broth microdilution MIC, ATCC strains; conditions: Escherichia coli, ATCC25922, E. coli ATCC 25922; read-out: MIC (growth inhibition, microdilution method)
Source text: as §1, §2

K. pneumoniae ATCC 13883 = assay: Broth microdilution MIC, ATCC strains; conditions: Klebsiella pneumoniae, ATCC13883; K. pneumoniae ATCC 13883; read-out: MIC (growth inhibition, microdilution method)
Source text: as §1, §2

P. rettgeri CAP = assay: Broth microdilution MIC, reference strains; conditions: Providencia rettgeri; P. rettgeri (CAP in Table 1); read-out: MIC (growth inhibition, microdilution method)
Source text: as §1, §2

[20] = Table 4B, each table row is one clinical isolate
[21] = ATCC29212, E. faecalis ATCC 29212
[22] = ATCC29212, E. faecalis, ATCC number not given
[23] = clinical isolates, one table line per isolate

Compound	MIC, C. AMALONATICUS [1, 20] [µg/mL]	MIC, S. MALTOPHILIA [2, 20] [µg/mL]	MIC, S. LIQUEFACIENS [3, 20] [µg/mL]	MIC, E. AEROGENES [4, 20] [µg/mL]	MIC, M. MORGANII [5, 20] [µg/mL]	MIC, P. STUARTII [6, 20] [µg/mL]	MIC, P. VULGARIS [7, 20] [µg/mL]	MIC (S. warneri ATCC 27836) [µg/mL]	MIC [19] [µg/mL]	MIC (S. marcescens ATCC 8100) [µg/mL]	MIC (MRSA ATCC 33591) [µg/mL]	MIC (K. oxytoca ATCC 49131) [µg/mL]	MIC (A. anitratus ATCC 19606) [µg/mL]	MIC (E. cloacae ATCC 23355) [µg/mL]	MIC (P. mirabilis ATCC 29245) [µg/mL]	MIC (E. faecalis ATCC 29212; [21]) [µg/mL]	MIC (E. faecalis ATCC 29212; [22]) [µg/mL]	MIC (E. coli ATCC 25922) [µg/mL]	MIC (K. pneumoniae ATCC 13883) [µg/mL]	MIC (P. rettgeri CAP) [µg/mL]	also measured
Cn1nnnc1-c1cc(-c2ccc(F)cc2)sc1C(=O)O [DNM-143, 5-(4-Fluoro-phenyl)-3-(1-methyl-1H-tetrazol-5-yl)-thiophene-2-carboxylic acid]	> 8	> 8	> 8	> 8	> 8	> 8	> 8	> 8	> 8	> 8	> 8	> 8	> 8	> 8	> 8	> 8	> 8	> 8	> 8	> 8	MIC, P. RETTGERI [8, 20]: > 8 µg/mL; MIC, E. CLOACAE [9, 20]: > 8 µg/mL; MIC, B. CEPACIA [10, 20]: > 8 µg/mL; MIC, C. FREUNDII [11, 20]: >8; MIC, A. BAUMANII [12, 20]: > 8 µg/mL; MIC, K. PNEUMONIAE [13, 20]: > 8 µg/mL; MIC, C. KOSERI [14, 20]: > 8 µg/mL; MIC, K. OXYTOCA [15, 20]: > 8 µg/mL; MIC, S. MARCESCENS [16, 20]: > 8 µg/mL; MIC, E. COLI [17, 20]: > 8 µg/mL; MIC, P. MIRABILIS [18, 20]: > 8 µg/mL
Cn1nnnc1-c1cc(-c2ccc(F)cc2)sc1-c1ccc(F)cc1 [DNM-133, 5-(2,5-Bis(4-fluorophenyl)thiophen-3-yl)-1-methyl-1H-tetrazole]	> 16	> 16	> 16	> 16	> 16	> 16	> 16	> 16	> 16	> 16	> 16	> 16	> 16	> 16	> 16	> 16	> 16	> 16	> 16	> 16	MIC, P. RETTGERI [8, 20]: > 16 µg/mL; MIC, E. CLOACAE [9, 20]: > 16 µg/mL; MIC, B. CEPACIA [10, 20]: > 16 µg/mL; MIC, C. FREUNDII [11, 20]: >16; MIC, A. BAUMANII [12, 20]: > 16 µg/mL; MIC, K. PNEUMONIAE [13, 20]: > 16 µg/mL; MIC, C. KOSERI [14, 20]: > 16 µg/mL; MIC, K. OXYTOCA [15, 20]: > 16 µg/mL; MIC, S. MARCESCENS [16, 20]: > 16 µg/mL; MIC, E. COLI [17, 20]: > 16 µg/mL; MIC, P. MIRABILIS [18, 20]: > 16 µg/mL
O=C(O)c1cc(-c2nnn[nH]2)c(-c2ccc(F)cc2)s1 [DNM-121, 5-(4-Fluoro-phenyl)-4-(1H-tetrazol-5-yl)-thiophene-2-carboxylic acid]	–	–	–	–	–	–	–	64 (≈ 220 µM)	64 (≈ 220 µM)	64 (≈ 220 µM)	64 (≈ 220 µM)	64 (≈ 220 µM)	64 (≈ 220 µM)	64 (≈ 220 µM)	64 (≈ 220 µM)	8 (≈ 27.6 µM)	8 (≈ 27.6 µM)	64 (≈ 220 µM)	64 (≈ 220 µM)	64 (≈ 220 µM)	MIC, C. AMALONATICUS [1, 23]: 64 µg/mL (≈ 220 µM); MIC, S. MALTOPHILIA [2, 23]: 64 µg/mL (≈ 220 µM); MIC, S. LIQUEFACIENS [3, 23]: 64 µg/mL (≈ 220 µM); MIC, E. AEROGENES [4, 23]: 64 µg/mL (≈ 220 µM); MIC, M. MORGANII [5, 23]: 64 µg/mL (≈ 220 µM); MIC, P. STUARTII [6, 23]: 64 µg/mL (≈ 220 µM); MIC, P. VULGARIS [7, 23]: 64 µg/mL (≈ 220 µM); MIC, P. RETTGERI [8, 23]: 64 µg/mL (≈ 220 µM); MIC, E. CLOACAE [9, 23]: 64 µg/mL (≈ 220 µM); MIC, B. CEPACIA [10, 23]: 64 µg/mL (≈ 220 µM); MIC, C. FREUNDII [11, 23]: 64; MIC, A. BAUMANII [12, 23]: 64 µg/mL (≈ 220 µM); MIC, K. PNEUMONIAE [13, 23]: 64 µg/mL (≈ 220 µM); MIC, C. KOSERI [14, 23]: 64 µg/mL (≈ 220 µM); MIC, K. OXYTOCA [15, 23]: 64 µg/mL (≈ 220 µM); MIC, S. MARCESCENS [16, 23]: 64 µg/mL (≈ 220 µM); MIC, E. COLI [17, 23]: 64 µg/mL (≈ 220 µM); MIC, P. MIRABILIS [18, 23]: 64 µg/mL (≈ 220 µM)
